Experimental data reported in patent US20240400549A1, “COMPOUNDS AND THEIR USES FOR TREATING NEURODEGENERATIVE DISEASE” (Academia Sinica, priority 2021, published 2024).
Peptide text beside a SMILES is read from it. * marks the point of attachment. Cbz = O=C(OCc1ccccc1)*

Experiments:
Neuro-2a cells = experiment: Cytotoxicity of compounds in Neuro-2a cells; format: cell-based, mouse; conditions: for cytotoxicity as compared to that of compound II-1d: 5 or 10 μM concentration, Neuro-2a cells
109Q-HTTEX1 = target: T1, 109Q-HTTEX1 (Homo sapiens, UniProt P42858); experiment: Western blot of polyQ-expanded huntingtin (109Q-HTTEX1) in transfected Neuro-2a cells; format: cell-based; conditions: 5 μM, 24 h
T1 construct: the polyQ-expanded N terminus of HTT translated from the exon 1 of human huntingtin gene; expressed in transfected cells; host or cells: Neuro-2a (mouse neuroblastoma)
T1 sequence (P42858 with tags, fused parts or gaps): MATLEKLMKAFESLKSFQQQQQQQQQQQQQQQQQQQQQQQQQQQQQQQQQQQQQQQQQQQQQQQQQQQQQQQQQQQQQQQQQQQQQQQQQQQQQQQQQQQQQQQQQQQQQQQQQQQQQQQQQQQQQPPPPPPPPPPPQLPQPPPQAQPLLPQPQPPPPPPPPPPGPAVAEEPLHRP
Method: (§1) Mouse neuroblastoma cell line (Neuro-2a) were cultured in Dulbecco's modified Eagle's medium (DMEM; Gibco) containing 2×10^−3 M glutamine, 10% heat inactivated fetal bovine serum (FBS), and 100 U mL^−1 penicillin-streptomycin (Gibco) at 37° C. in a humidified incubator containing 5% CO2. Alternatively, Neuro-2a cells were cultured in Dulbecco's modified Eagle's medium (DMEM; Invitrogen, Carlsbad, CA, USA) supplemented with 10% heat-inactivated FBS. The cells were incubated in a humidified incubator at 37° C. with 10% CO2. Transfection was performed using T-Pro NTR II (Ji-Feng Biotechnology, Taiwan) following the manufacturer's protocol.
(§2) Alternatively, cells were lysed with RIPA lysis buffer (150 mM sodium chloride, 1% Nonidet P-40, 0.5% sodium deoxycholate, 0.1% SDS, and 50 mM Tris-HCl, pH 8.0) containing 1× protease inhibitor cocktail and 1× phosphatase inhibitor cocktail to prepare total lysates, which were rotated at 4° C. for 1 h. Protein concentrations were determined with a Bio-Rad protein assay kit (Bio-Rad, Hercules, CA, USA). Protein samples were separated on 8-10% SDS-PAGE gels and electrophoretically transferred onto PVDF membranes (Millipore, Billerica, MA, USA). The membranes were incubated overnight at 4° C. with the following primary antibodies: anti-GAPDH (GeneTex; GTX627408), anti-HTT (Habel; a custom antibody raised against protein translated from the exon 1 of HTT (designated HTTEX1), anti-pTau (MC1, a generous gift from Dr. Peter Davies, the Feinstein Institute for Medical Research, New York, USA), and anti-VCP (BD, East Rutherford, NJ, USA). Immunoreactive bands were detected by enhanced chemiluminescence (ECL; Millipore) and recorded using the UVP ChemiDoc-It Imaging System (Upland, CA, USA).
In this example, the effect of the present compound on huntingtin (HTT) protein (a protein known to cause Huntington's disease) was investigated. To this purpose, Neuro-2a cells were transiently transfected with pcDNA3-109Q-HTTEX1 (i.e., the polyQ-expanded N terminus of HTT translated from the exon 1 of human huntingtin gene (designated 109Q-HTTEX1)) and then exposed to the indicated compound (5 μM) for additional 24 h. Total protein lysates were harvested for Western blot analyses, and results are depicted in FIG. 3.

[1] = target: T2, pathogenic tau protein (pTau) (Homo sapiens, UniProt P10636, P618L); experiment: Western blot of pathogenic tau protein (pTau) in SH-SY5Y-Tau-P301L cells; format: cell-based; conditions: 5 μM, 24 h, doxycycline-induced SH-SY5Y-Tau-P301L cells
T2 construct: expressed in transfected cells; host or cells: SH-SY5Y-Tau-P301L (doxycycline-inducible)
T2 sequence (P10636 1-441 isoform P10636-8 P301L): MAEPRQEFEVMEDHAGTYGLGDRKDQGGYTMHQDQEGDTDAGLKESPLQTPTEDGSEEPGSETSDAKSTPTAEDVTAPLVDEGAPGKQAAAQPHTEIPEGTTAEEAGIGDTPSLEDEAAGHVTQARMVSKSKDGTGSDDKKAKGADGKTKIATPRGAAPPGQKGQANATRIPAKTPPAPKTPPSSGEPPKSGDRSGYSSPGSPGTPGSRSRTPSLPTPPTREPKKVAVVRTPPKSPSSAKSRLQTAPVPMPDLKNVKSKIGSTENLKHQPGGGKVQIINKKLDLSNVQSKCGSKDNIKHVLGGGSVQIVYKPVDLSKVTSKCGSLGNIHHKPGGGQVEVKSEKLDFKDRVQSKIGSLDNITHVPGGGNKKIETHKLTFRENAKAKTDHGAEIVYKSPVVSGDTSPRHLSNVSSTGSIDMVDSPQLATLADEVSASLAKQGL
Method: The SH-SY5Y-Tau-P301L cell line (SY5Y-Tau) were cultured in DMEM supplemented with 10% FBS and incubated in a humidified incubator at 37° C. with 5% CO2. To induce the expression of pathogenic Tau (pTau), SY5Y-Tau cells were seeded at 1×10^5/60-mm plate, cultured for 2-3 days to reach 70% confluence, and treated with doxycycline (1 μg/mL) for 24 hr to induce the expression of pTau.
as §2
Hyperphosphorylated tau protein is a major hallmark of Alzheimer's disease and many other neurological disorders (including Huntington's disease). To investigate the effects of the compounds of formula (I) or formula (II) on the pathogenic tau protein (designated pTau), SH-SY5Y-Tau-P301L cells were treated with doxycycline (1 μg/mL) (which induced the expression of pathogenic tau protein (pTau), and the indicated compound (5 μM) for 24 h. Total protein lysates were then harvested and analyzed by Western blot analyses. Results are illustrated in FIG. 4.

eGFP-C-TDP-43 aggregates = target: T3, eGFP-C-TDP-43 aggregates (Homo sapiens, UniProt Q13148); experiment: Filter trap assay of insoluble eGFP-C-TDP-43 aggregates in transfected Neuro-2a cells; format: cell-based, mouse; conditions: 5 μM
T3 construct: expressed in transfected cells; host or cells: Neuro-2a (mouse neuroblastoma)
T3 sequence (Q13148 208-414 limits assumed): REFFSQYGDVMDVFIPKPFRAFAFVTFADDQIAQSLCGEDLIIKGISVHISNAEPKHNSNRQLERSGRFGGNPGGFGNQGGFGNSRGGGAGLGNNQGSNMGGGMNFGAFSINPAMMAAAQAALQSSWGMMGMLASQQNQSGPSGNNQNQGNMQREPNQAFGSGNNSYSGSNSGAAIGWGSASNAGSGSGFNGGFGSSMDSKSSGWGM
Method: as §1
Neuro-2a cells were seeded in a 6-well plate at a concentration of 2×10^5 cells/well and incubated overnight. Once the cells were attached, Neuro-2a cells were transfected with the eGFP-C-TDP-43 plasmid (2.2 μg) using Turbofect transfection reagent (Invitrogen) and treated with or without 5 μM test compound after 2 h transfection. After incubation for another 22 h, the transfected cells were harvested by RIPA buffer containing protease inhibitor (Roche) and sonicated on ice for 10 seconds. Extracts were centrifuged at 14000 rpm for 10 min at 4° C., followed by measurement of protein concentration using a bicinchoninic acid (BCA) assay. […] Aggregated eGFP-C-TDP-43 protein trapped by the CA membranes was determined by immunoblotting. […]
In this example, the effect of the present compound on C-TDP-43 aggregates was investigated. To this purpose, the eGFP-TDP-43208-414 (hereafter referred as eGFP-C-TDP-43) expressed Neuro-2a cells were first treated with tested compound (e.g., any one of the compounds of formula (I) or (II), then, cells were lysed and the insoluble eGFP-C-TDP43 aggregates were quantified by use of filter trap assay as described in the “Materials and Methods” section; for comparison, slot blot assay was also performed by using the nitrocellulose (NC) membrane for the loading control. Results are depicted in FIG. 1.

[2] = tested on: YFP—C-TDP-43 transgenic C. elegans; experiment: Swimming (thrashing) body bend assay of YFP-C-TDP-43 transgenic C. elegans; format: in vivo; conditions: YFP—C-TDP-43 C. elegans, swimming in buffer
Method: The YFP—C-TDP-43 transgenic strains of C. elegans generated in this study were IW33 [Psnb-l:C-TDP-43219-414-YFP (iwIs22)]. The strains of nematodes were maintained with standard procedure and grown at 20° C. as previously described (Zhang, T. et al. Hum. Mol. Genet. 2011, 20 (10), 1952). For all assays, the transgenic young two-day (80 hours) adults were used. For larvae synchronization, the eggs were isolated by lysing gravid adult worms with freshly prepared bleaching solution (0.5 mL 5 M NaOH with 1 mL bleach) and incubated in S buffer (recipe) for overnight. For drug treatments, compound I-1b and/or DMSO were solely or along with MG132 applied to fresh NGM plates prior to installing the synchronized C. elegans. The body bends of the corresponding treatment in a duration of 30 seconds of the various strains were documented through SMZ800N stereomicroscope equipped with a CCD camera (Nikon). A body bend was counted as the head of C. elegans travels across the mid-body in 1×PBS buffer. Then, the bending videos of C. elegans were analyzed by ImageJ with the wrMTrck plugin (Nussbaum-Krammer, C. I. et al. J. Vis. Exp. 2015, (95), 52321). […]
As YFP—C-TDP-43 readily forms cytosolic aggregates in nervous system, the YFP—C-TDP-43 aggregates both in the neuron processes and neuron bodies of the ventral cord were monitored. […]

Compound	reduction of the expression of 109Q-HTTEX1 (109Q-HTTEX1)	reduction of the expressed level of pTau [1]	level of C-TDP-43 aggregate as compared to the control group (eGFP-C-TDP-43 aggregates)	further results
CN(C)c1ccc(-c2nc3ccc(OCCOCCNc4cccc5c4C(=O)N(C4CCC(=O)NC4=O)C5=O)cc3s2)cc1 (stereo not drawn) [I-1a, 4-((2-(2-((2-(4-(dimethylamino)phenyl)benzo[d]thiazol-6-yl)oxy)ethoxy)ethyl)amino)-2-(2,6-dioxopiperidin-3-yl)isoindoline-1,3-dione]	–	–	–	cytotoxicity comparing to mock group of Neuro-2a cells (Neuro-2a cells; 5 μM concentration): neglectable cytotoxicity
CN(C)c1ccc(-c2nc3ccc(OCCOCCOCCOCCNc4cccc5c4C(=O)N(C4CCC(=O)NC4=O)C5=O)cc3s2)cc1 (stereo not drawn) [I-1c, 4-((2-(2-(2-(2-((2-(4-(dimethylamino)phenyl)benzo[d]thiazol-6yl)oxy)ethoxy)ethoxy)ethoxy)ethyl)amino)-2-(2,6-dioxopiperidin-3-yl)isoindoline-1,3-dione]	approximately 50%	approximately 40%	–	–
CN(C)c1ccc(-c2nc3ccc(OCCOCCOCCOCCOCCNc4cccc5c4C(=O)N(C4CCC(=O)NC4=O)C5=O)cc3s2)cc1 (stereo not drawn) [I-1d, 4-((14-((2-(4-(dimethylamino)phenyl)benzo[d]thiazol-6-yl)oxy)-3,6,9,12-tetraoxatetradecyl)amino)-2-(2,6-dioxopiperidin-3-yl)isoindoline-1,3-dione]	approximately 50%	approximately 40%	–	–
CNc1ccc(/C=C/c2ccc(OCCOCCOCCNc3cccc4c3C(=O)N(C3CCC(=O)NC3=O)C4=O)nc2)cc1 (stereo not drawn) [II-1b, (E)-2-(2,6-dioxopiperidin-3-yl)-4-((2-(2-(2-((5-(4-(methylamino)styryl)pyridin-2-yl)oxy)ethoxy)ethoxy)ethyl)amino)isoindoline-1,3-dione]	20%	–	significantly reduce	cytotoxicity as compared to that of compound II-1d (Neuro-2a cells): less cytotoxicity; reduction of the expressed level of pTau ([1]; listed as IT-1b): negligible effect
CNc1ccc(/C=C/c2ccc(OCCOCCOCCNc3cccc4c3C(=O)N(C3CCC(=O)NC3=O)C4=O)nc2)cc1 (stereo not drawn) [II-1d, (E)-2-(2,6-dioxopiperidin-3-yl)-4-((2-(2-(2-((5-(4-(methylamino)styryl)pyridin-2-yl)oxy)ethoxy)ethoxy)ethyl)amino)isoindoline-1,3-dione]	approximately 50%	approximately 40%	significantly reduce	–
CNc1ccc(/C=C/c2ccc(OCCCCCCCCCCNc3cccc4c3C(=O)N(C3CCC(=O)NC3=O)C4=O)nc2)cc1 (stereo not drawn) [II-2d, (E)-2-(2,6-dioxopiperidin-3-yl)-4-((10-((5-(4-(methylamino)styryl)pyridin-2-yl)oxy)decyl)amino)isoindoline-1,3-dione]	–	–	significantly reduce	cytotoxicity as compared to that of compound II-1d (Neuro-2a cells): lower toxicity
CC(C)C[C@@H](C=O)NC(=O)[C@H](CC(C)C)NC(=O)[C@H](CC(C)C)NC(=O)OCc1ccccc1 [MG132, reference compound] (Cbz-Leu-Leu-Leu-aldehyde)	–	–	–	bending frequency (in words) [2]: slow bending frequency
